Here are results for one compound from paper PMC2824700, “Genetic analysis of the Staphylococcus epidermidis Macromolecular Synthesis Operon: Serp1129 is an ATP binding protein and sigA transcription is regulated by both σ^A- and σ^B-dependent promoters” (BMC Microbiology, 2010).

This assay concerns the target T1, Serp1129 (Staphylococcus epidermidis, UniProt Q5HNY5).
T1 construct: full ORF in pET30a+ (NcoI/BamHI), His-tagged, E. coli BL21(DE3), HisTrap purified
T1 sequence (Q5HNY5 1-272): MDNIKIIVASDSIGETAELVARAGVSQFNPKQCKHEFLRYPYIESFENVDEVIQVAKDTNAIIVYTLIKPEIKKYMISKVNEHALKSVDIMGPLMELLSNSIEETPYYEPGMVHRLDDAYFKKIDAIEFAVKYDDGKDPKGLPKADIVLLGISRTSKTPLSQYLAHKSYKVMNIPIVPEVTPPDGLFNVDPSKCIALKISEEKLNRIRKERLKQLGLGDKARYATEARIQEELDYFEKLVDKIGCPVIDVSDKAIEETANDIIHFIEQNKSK
Description: competition against biotinylated azidoanilide GTP photoaffinity label, streptavidin blot. To be noted: 5-30 uM unlabeled GTP versus 1 uM labelled analogue; 25 °C, 30 s, then UV 254 nm. Format: binding.

Consider `Nc1nc2c(ncn2[C@@H]2O[C@H](COP(=O)(O)OP(=O)(O)OP(=O)(O)O)[C@@H](O)[C@H]2O)c(=O)[nH]1` [GTP], for which the “competition against biotinylated azidoanilide GTP photoaffinity label, streptavi” value is “A similar pattern was observed when GTP binding reactions were performed”.
